# Test results reported in ChEMBL document CHEMBL4680273, “Teixobactin: A Paving Stone toward a New Class of Antibiotics?” (2020).
# How the values were obtained:
# Type in all cases: functional
# Staphylococcus aureus [1] = experiment: Antibacterial activity against methicillin- resistant Staphylococcus aureus TH4115 incubated for 16 to 20 hrs by CLSI-based broth microdilution method; conditions: time 16-20 hrs
# Staphylococcus aureus [2] = experiment: Antibacterial activity against Staphylococcus aureus TH4112 incubated for 16 to 20 hrs by CLSI-based broth microdilution method; conditions: time 16-20 hrs
# Staphylococcus aureus [3] = experiment: Antibacterial activity against methicillin resistant Staphylococcus aureus
# Staphylococcus aureus [4] = experiment: Antibacterial activity against Staphylococcus aureus ATCC 29213 by CLSI-based broth microdilution method
# Staphylococcus aureus [5] = experiment: Antibacterial activity against methicillin resistant Staphylococcus aureus USA300
# Bacillus spizizenii = experiment: Antibacterial activity against Bacillus subtilis ATCC 6633 by M07-A9 CLSI method
# Bacillus subtilis [6] = experiment: Antibacterial activity against Bacillus subtilis ATCC 6051 incubated for 24 hrs by CLSI based broth microdilution method
# Staphylococcus aureus [7] = experiment: Antibacterial activity against Staphylococcus aureus 25923 incubated for 24 hrs by CLSI based broth microdilution method
# Staphylococcus aureus [8] = experiment: Antibacterial activity against Staphylococcus aureus
# Staphylococcus aureus [9] = experiment: Antibacterial activity against methicillin- resistant Staphylococcus aureus SA86
# Staphylococcus aureus [10] = experiment: Antibacterial activity against Staphylococcus aureus ATCC 29213
# Staphylococcus aureus [11] = experiment: Antibacterial activity against methicillin resistant Staphylococcus aureus ATCC 33591 incubated for 24 hrs
# Staphylococcus aureus [12] = experiment: Antibacterial activity against Staphylococcus aureus ATCC 29213 incubated for 24 hrs by CLSI-based broth microdilution method
# [13] = tested on: Staphylococcus epidermidis; experiment: Antibacterial activity against Staphylococcus epidermidis ATCC 14990 incubated for 16 hrs by UV/Visible absorbance method
# Staphylococcus aureus [14] = experiment: Antibacterial activity against Staphylococcus aureus ATCC 29213 incubated for 20 hrs by CLSI-based broth microdilution checkerboard method
# Staphylococcus aureus [15] = experiment: Antibacterial activity against Staphylococcus aureus SH1000 incubated for 24 hrs by CLSI-broth microdilution method; conditions: Staphylococcus aureus, SH1000, read-out: MIC
# Pseudomonas aeruginosa = experiment: Antibacterial activity against Pseudomonas aeruginosa PAO1 incubated for 24 hrs in presence of colistin by Checkerboard assay
# Staphylococcus aureus [16] = experiment: Antibacterial activity against Staphylococcus aureus ATCC 29213 incubated for 16 hrs by UV/Visible absorbance method
# Bacillus subtilis [17] = experiment: Antibacterial activity against Bacillus subtilis ATCC 6051 incubated for 16 hrs by UV/Visible absorbance method
smiles,measurement,setting,value
CC[C@H](C)[C@H](NC(=O)[C@@H](Cc1ccc(-c2ccccc2)cc1)NC)C(=O)N[C@@H](CO)C(=O)N[C@H](CCCNC(=N)N)C(=O)N[C@@H](C(=O)N[C@H](C(=O)N[C@@H](CO)C(=O)N[C@H]1C(=O)N[C@@H](C)C(=O)N[C@@H](C[C@H]2CNC(=N)N2)C(=O)N[C@@H]([C@@H](C)CC)C(=O)O[C@H]1C)[C@@H](C)CC)[C@@H](C)CC,MIC,Staphylococcus aureus [1],0.25 µg/mL
same,MIC,Staphylococcus aureus [2],0.25 µg/mL
CC[C@H](C)[C@H](NC(=O)[C@@H](Cc1ccccc1)NC)C(=O)N[C@@H](CO)C(=O)N[C@H](CC(N)=O)C(=O)N[C@@H](C(=O)N[C@H](C(=O)N[C@@H](C)C(=O)N[C@H]1C(=O)N[C@@H](C)C(=O)N[C@@H](CCCNC(=N)N)C(=O)N[C@@H]([C@@H](C)CC)C(=O)O[C@H]1C)[C@@H](C)CC)[C@@H](C)CC,MIC,Staphylococcus aureus [3],0.5 µg/mL
same,MIC,Staphylococcus aureus [4],2 µg/mL
CC[C@H](C)[C@H](NC(=O)[C@@H](Cc1ccccc1)NC)C(=O)N[C@@H](CO)C(=O)N[C@H](CCC(N)=O)C(=O)N[C@@H](C(=O)N[C@H](C(=O)N[C@@H](CO)C(=O)N[C@H]1C(=O)N[C@@H](C)C(=O)N[C@@H](Cc2ncc[nH]2)C(=O)N[C@@H]([C@@H](C)CC)C(=O)O[C@H]1C)[C@@H](C)CC)[C@@H](C)CC,MIC,Staphylococcus aureus [3],2 µg/mL
same,MIC,Staphylococcus aureus [5],16 µg/mL
same,MIC,Bacillus spizizenii,8 µg/mL
CC[C@H](C)[C@H](NC(=O)[C@@H](Cc1ccccc1)NC)C(=O)N[C@@H](CO)C(=O)N[C@H](CCC(N)=O)C(=O)N[C@@H](C(=O)N[C@H](C(=O)N[C@@H](CO)C(=O)N[C@H]1C(=O)N[C@@H](C)C(=O)N[C@@H](CCCNC(=N)N)C(=O)N[C@@H]([C@@H](C)CC)C(=O)O[C@H]1C)[C@@H](C)CC)[C@@H](C)CC,MIC,Bacillus subtilis [6],0.4 µg/mL
same,MIC,Staphylococcus aureus [7],1.6 µg/mL
same,MIC,Staphylococcus aureus [8],2 µg/mL
CC[C@H](C)[C@@H]1NC(=O)[C@H](C[C@H]2CNC(=N)N2)NC(=O)[C@H](C)NC(=O)[C@H](NC(=O)[C@H](CO)NC(=O)[C@@H](NC(=O)[C@H](NC(=O)[C@@H](CCC(N)=O)NC(=O)[C@H](CO)NC(=O)[C@@H](NC(=O)[C@@H](Cc2ccccc2)NC)[C@@H](C)CC)[C@@H](C)CC)[C@@H](C)CC)CNC1=O,MIC,Staphylococcus aureus [2],0.185 µg/mL
CC[C@H](C)[C@H](NC(=O)[C@H](NC(=O)[C@@H](CCC(N)=O)NC(=O)[C@H](CO)NC(=O)[C@H](CC(C)C)NC(=O)[C@@H](Cc1ccccc1)NC)[C@@H](C)CC)C(=O)N[C@@H](CO)C(=O)N[C@H]1C(=O)N[C@@H](C)C(=O)NC(CCCN)C(=O)N[C@@H]([C@@H](C)CC)C(=O)O[C@H]1C (some centres not stated),MIC,Staphylococcus aureus [9],4 µg/mL
same,MIC,Staphylococcus aureus [10],4 µg/mL
CC[C@H](C)[C@H](NC(=O)[C@@H](Cc1ccccc1)NC)C(=O)N[C@@H](CO)C(=O)N[C@H](CCC(N)=O)C(=O)N[C@@H](C(=O)N[C@H](C(=O)N[C@@H](C)C(=O)N[C@H]1C(=O)N[C@@H](C)C(=O)N[C@@H](CCCNC(=N)N)C(=O)N[C@@H]([C@@H](C)CC)C(=O)O[C@H]1C)[C@@H](C)CC)[C@@H](C)CC,MIC,Staphylococcus aureus [11],32 µg/mL
same,MIC,Staphylococcus aureus [4],32 µg/mL
CC[C@H](C)[C@H](NC(=O)[C@@H](Cc1ccccc1)NC)C(=O)N[C@@H](CO)C(=O)N[C@H](CCCCN)C(=O)N[C@@H](C(=O)N[C@H](C(=O)N[C@@H](C)C(=O)N[C@H]1C(=O)N[C@@H](C)C(=O)N[C@@H](CCCNC(=N)N)C(=O)N[C@@H]([C@@H](C)CC)C(=O)O[C@H]1C)[C@@H](C)CC)[C@@H](C)CC,MIC,Bacillus subtilis [6],1 µg/mL
same,MIC,Staphylococcus aureus [12],4 µg/mL
CC[C@H](C)[C@H](NC(=O)[C@@H](Cc1ccccc1)NC)C(=O)N[C@@H](CCCCN)C(=O)N[C@H](CCC(N)=O)C(=O)N[C@@H](C(=O)N[C@H](C(=O)N[C@@H](CO)C(=O)N[C@H]1C(=O)N[C@@H](C)C(=O)N[C@@H](CCCNC(=N)N)C(=O)N[C@@H]([C@@H](C)CC)C(=O)O[C@H]1C)[C@@H](C)CC)[C@@H](C)CC,MIC,Bacillus subtilis [6],0.25 µg/mL
same,MIC,Staphylococcus aureus [12],4 µg/mL
CC[C@H](C)[C@@H]1NC(=O)[C@H](CCCNC(=N)N)NC(=O)[C@H](C)NC(=O)[C@H](NC(=O)[C@H](CO)NC(=O)[C@@H](NC(=O)[C@H](NC(=O)[C@@H](CCC(N)=O)NC(=O)[C@H](CO)NC(=O)[C@@H](NC(=O)[C@@H](Cc2ccccc2)NC)[C@@H](C)CC)[C@@H](C)CC)[C@@H](C)CC)CNC1=O,MIC,[13],1 µg/mL
CC[C@H](C)[C@H](NC(=O)[C@@H](Cc1ccccc1)NC)C(=O)N[C@@H](CO)C(=O)N[C@H](CCCNC(=N)N)C(=O)N[C@@H](C(=O)N[C@H](C(=O)N[C@@H](C)C(=O)N[C@H]1C(=O)N[C@@H](C)C(=O)N[C@@H](CCCNC(=N)N)C(=O)N[C@@H]([C@@H](C)CC)C(=O)O[C@H]1C)[C@@H](C)CC)[C@@H](C)CC,MIC,Staphylococcus aureus [3],1 µg/mL
same,MIC,Staphylococcus aureus [4],2 µg/mL
CC[C@H](C)[C@H](NC(=O)[C@H](NC(=O)[C@@H](CCC(N)=O)NC(=O)[C@H](CO)NC(=O)[C@@H](NC(=O)[C@@H](Cc1ccccc1)NC)C(C)C)[C@@H](C)CC)C(=O)N[C@@H](CO)C(=O)N[C@H]1C(=O)N[C@@H](C)C(=O)NC(CCCN)C(=O)N[C@@H]([C@@H](C)CC)C(=O)O[C@H]1C (some centres not stated),MIC,Staphylococcus aureus [9],8 µg/mL
same,MIC,Staphylococcus aureus [10],8 µg/mL
CC[C@H](C)[C@H](NC(=O)[C@@H](Cc1ccccc1)NC)C(=O)N[C@@H](CO)C(=O)N[C@H](CCC(N)=O)C(=O)N[C@@H](C(=O)N[C@H](C(=O)N[C@@H](CO)C(=O)N[C@H]1C(=O)N[C@@H](C)C(=O)N[C@@H](CCCNC(N)=O)C(=O)N[C@@H]([C@@H](C)CC)C(=O)O[C@H]1C)[C@@H](C)CC)[C@@H](C)CC,MIC,Staphylococcus aureus [5],16 µg/mL
CC[C@H](C)[C@H](NC(=O)[C@@H](Cc1ccccc1)NC)C(=O)N[C@@H](CO)C(=O)N[C@H](CCC(N)=O)C(=O)N[C@@H](C(=O)N(C)[C@H](C(=O)N[C@@H](CO)C(=O)N[C@H]1C(=O)N[C@@H](C)C(=O)N[C@@H](CCCCN)C(=O)N[C@@H]([C@@H](C)CC)C(=O)O[C@H]1C)[C@@H](C)CC)[C@@H](C)CC,MIC,Staphylococcus aureus [14],16 µg/mL
CCCCC1NC(=O)[C@H](CCCNC(=N)N)NC(=O)[C@H](C)NC(=O)[C@H](NC(=O)[C@H](CO)NC(=O)[C@@H](NC(=O)[C@H](NC(=O)[C@@H](CCC(N)=O)NC(=O)[C@H](CO)NC(=O)[C@@H](NC(=O)[C@@H](Cc2ccccc2)NC)[C@@H](C)CC)[C@@H](C)CC)[C@@H](C)CC)[C@H](C)OC1=O (some centres not stated),MIC,Staphylococcus aureus [15],8 µg/mL
same,MIC,Pseudomonas aeruginosa,64 µg/mL
CC[C@H](C)[C@H](NC(=O)[C@@H](Cc1ccccc1)NC)C(=O)N[C@@H](CO)C(=O)N[C@H](CCC(N)=O)C(=O)N[C@@H](C(=O)N[C@H](C(=O)N[C@@H](CO)C(=O)N[C@H]1C(=O)N[C@@H](C)C(=O)NC(CCCN)C(=O)N[C@@H]([C@@H](C)CC)C(=O)O[C@H]1C)[C@@H](C)CC)C(C)C (some centres not stated),MIC,Staphylococcus aureus [9],16 µg/mL
same,MIC,Staphylococcus aureus [10],8 µg/mL
CC[C@H](C)[C@H](NC(=O)[C@H](NC(=O)[C@@H](CCC(N)=O)NC(=O)[C@H](CO)NC(=O)[C@@H](NC(=O)[C@H](Cc1ccccc1)N(C)C)[C@@H](C)CC)[C@@H](C)CC)C(=O)N[C@@H](CO)C(=O)N[C@H]1C(=O)N[C@@H](C)C(=O)N[C@@H](CCCNC(=N)N)C(=O)N[C@@H]([C@@H](C)CC)C(=O)O[C@H]1C,MIC,Staphylococcus aureus [4],32 µg/mL
CC[C@H](C)[C@H](NC(=O)[C@@H](Cc1ccccc1)NC)C(=O)N[C@@H](CO)C(=O)N[C@H](CCC(N)=O)C(=O)N[C@@H](C(=O)N[C@H](C(=O)N[C@@H](CO)C(=O)N[C@H]1C(=O)N[C@@H](C)C(=O)N[C@@H](CCC/N=C(\N)N(C)C)C(=O)N[C@@H]([C@@H](C)CC)C(=O)O[C@H]1C)[C@@H](C)CC)[C@@H](C)CC,MIC,Staphylococcus aureus [5],4 µg/mL
CC[C@H](C)[C@H](NC(=O)[C@@H](Cc1ccccc1)NC)C(=O)N[C@@H](CO)C(=O)N[C@H](CCC(N)=O)C(=O)N[C@@H](C(=O)N[C@H](C(=O)N[C@@H](CCCCO)C(=O)N[C@H]1C(=O)N[C@@H](C)C(=O)N[C@@H](CCCNC(=N)N)C(=O)N[C@@H]([C@@H](C)CC)C(=O)O[C@H]1C)[C@@H](C)CC)[C@@H](C)CC,MIC,Bacillus subtilis [6],8 µg/mL
same,MIC,Staphylococcus aureus [12],32 µg/mL
CC[C@H](C)[C@H](NC(=O)[C@@H](Cc1ccccc1)NC)C(=O)N[C@@H](CO)C(=O)N(C)[C@H](CCC(N)=O)C(=O)N[C@@H](C(=O)N[C@H](C(=O)N[C@@H](CO)C(=O)N[C@H]1C(=O)N[C@@H](C)C(=O)N[C@@H](CCCCN)C(=O)N[C@@H]([C@@H](C)CC)C(=O)O[C@H]1C)[C@@H](C)CC)[C@@H](C)CC,MIC,[13],16 µg/mL
same,MIC,Staphylococcus aureus [16],16 µg/mL
CCCCC1NC(=O)C(CCCC(F)(F)F)NC(=O)[C@H](C)NC(=O)[C@H](NC(=O)[C@H](CO)NC(=O)[C@@H](NC(=O)[C@H](NC(=O)[C@@H](CCC(N)=O)NC(=O)[C@H](CO)NC(=O)[C@@H](NC(=O)[C@@H](Cc2ccccc2)NC)[C@@H](C)CC)[C@@H](C)CC)[C@@H](C)CC)[C@H](C)OC1=O (some centres not stated),MIC,Staphylococcus aureus [15],8 µg/mL
same,MIC,Pseudomonas aeruginosa,32 µg/mL
CC[C@H](C)[C@H](NC(=O)[C@@H](Cc1ccccc1)NC)C(=O)N[C@@H](CO)C(=O)N[C@H](CCC(N)=O)C(=O)N[C@@H](C(=O)N[C@H](C(=O)N[C@@H](CO)C(=O)N[C@H]1C(=O)N[C@@H](C)C(=O)NC(CCCN)C(=O)N[C@@H](C(C)C)C(=O)O[C@H]1C)[C@@H](C)CC)[C@@H](C)CC (some centres not stated),MIC,Staphylococcus aureus [9],8 µg/mL
same,MIC,Staphylococcus aureus [10],8 µg/mL
CC[C@@H](C)[C@H](NC(=O)[C@H](CCC(N)=O)NC(=O)[C@@H](CO)NC(=O)[C@H](NC(=O)[C@H](Cc1ccccc1)NC)[C@H](C)CC)C(=O)N[C@@H](C(=O)N[C@H](CO)C(=O)N[C@@H]1C(=O)N[C@H](C)C(=O)N[C@H](CCCNC(=N)N)C(=O)N[C@H]([C@H](C)CC)C(=O)O[C@@H]1C)[C@H](C)CC,MIC,Bacillus subtilis [17],2 µg/mL
same,MIC,[13],2 µg/mL
